Source: patent US6947790B2, “Neurocognitive function EEG measurement method and system” (priority 2000, dated 2005)
Like-named read-outs stand apart in the source and are kept apart here.

What was measured:
healthy adults [1] = experiment: Chronic AED administration study: NCFC; type: in vivo, human; conditions: one subject, after 30 days of chronic treatment, FIG. 14
Text: In Progress Study of Effects of Chronic AED Administration. Although their mechanisms of action are varied and incompletely understood, AEDs as a class tend to limit sustained repetitive firing of neurons by antagonizing mechanisms of excitation or by agonizing mechanisms of inhibition. It is likely that such effects have a measurable influence on task-related EEG or ERP parameters. Such biomarkers are being identified through exploratory analyses of data from subjects taking AEDs for 4 weeks. The study, which is being performed by Drs. F. Gilliam and K. Meador, is a randomized, double blind, crossover comparison of the cognitive and behavioral effects of chronic administration of the AEDs lamotrigine and topiramate in healthy adults. Lamotrigine and topiramate are newer AEDs that have been reported to differ in their cognitive side effects.
The study is designed such that subjects are randomized in a first treatment period to receive either lamotrigine or topiramate for 12 weeks (7 weeks of dose escalation followed by 4 weeks of maintenance therapy and then 1 week of tapering off the drug). […] In each test session, subjects have their EEG recorded from 8 scalp electrodes (positioned at AFz, F3, F4, C3, C4, Pz, PO3, PO4) and their EOG recorded from electrodes placed on the supraorbital ridge and outer canthus of each eye, while they perform the WM task and while they rest quietly.

healthy adults [2] = conditions: as reported for these AEDs; cited from earlier work
healthy subjects [3] = experiment: Experiment 5: working memory task performance
Description: (§1) Experiment: The motivation behind this experiment was to evaluate whether EEG and/or behavioral indices could be used to detect cognitive side effects of a common psychiatric medication. […] It acts primarily on the GABAergic system, enhancing the inhibitory effects of this neurotransmitter. […] It adversely affects memory functions and psychomotor performance following acute administration, and its CNS effects can be detected in EEG measures. […] The experiment was performed according to a double blind, fully counterbalanced design, and all participation was fully informed and voluntary.
(§2) They then participated in three sessions: a training session and two experimental sessions. In the initial session, following informed consent procedures, subjects were familiarized with the recording methods and apparatus, and given a sham (placebo) drug dose. They then practiced the tasks until performance levels reached asymptote. […] Each session consisted of a pre-drug baseline-recording interval, followed by five post-drug recording intervals extending to 5 hours after drug administration. In the pre-drug interval and in each of the post-drug intervals EEG was recorded while subjects performed computer-presented tasks and while they rested quietly. The computerized tasks included easy and difficult versions of a sustained attention working memory task, where difficulty was manipulated by varying working memory load. Subjective scales were also used to assess drowsiness, mood, and perceived drug effects. The entire procedure, including preparation time and rest breaks lasted approximately 7 hours. Transportation home was provided for the subjects at the end of each experimental session.

[4] = in vivo; cited from earlier work
healthy subjects [5] = experiment: Experiment 5: subjective scales after alprazolam
Description: as §1, §2

healthy subjects [6] = experiment: Experiment 5: NCFC index; type: in vivo, human; conditions: FIG. 11
Text: The resulting function is structured such that improvement in cognitive function in response to some intervention results in a positive deviation of the index, and impairment in cognitive function in response to some intervention results in a negative deviation of the index. […] In the first and second periods following drug ingestion the change in index values were highly significant across the group of subjects (t(9)=−4.02, p<0.004 and t(9)=−3.54, p<0.007 for t1 and t2 respectively), with some recovery in the later test periods (p's<0.05 for the rest of the test session).

healthy subjects [7] = experiment: Experiment 5: resting and task-related EEG and ERP; type: in vivo, human
Description: as §1, §2

healthy normal subjects [8] = experiment: Experiment 6: task performance; set-up: species or system human; conditions: in vivo
Description: (§3) The computerized tasks included a simple reaction time task and easy and difficult versions of the sustained attention WM task, in which difficulty was manipulated by varying WM load. Subjective scales were also administered to assess drowsiness, mood, and perceived drug effects. […] Transportation home was provided at the end of the sessions.

[9] = blood serum; cited from earlier work
[10] = Experiment 6: phenytoin blood serum levels; type: in vivo; conditions: human, oral, 10 mg/kg bodyweight, 5 hrs after 10 mg/kg bodyweight
healthy normal subjects [11] = experiment: Experiment 6: subjective scales after phenytoin; type: in vivo, human
Description: as §3, with “Experiment: The motivation behind this experiment was to evaluate how EEG and behavioral indices might be used to detect mild cognitive side effects of neurological medications, such as anti-epileptic drugs (AEDs). […] The” for “The”

healthy normal subjects [12] = experiment: Experiment 6: resting and task-related EEG and ERP; type: in vivo, human
Description: The computerized tasks included a simple reaction time task and easy and difficult versions of the sustained attention WM task, in which difficulty was manipulated by varying WM load. Subjective scales were also administered to assess drowsiness, mood, and perceived drug effects. […] Transportation home was provided at the end of the sessions. Neurophysiological Alertness: To examine whether there was any neurophysiological evidence for decreased alertness, the EEG data were processed to eliminate artifacts and to compute power spectra and ERPs in each test condition. […] These physiological changes are consistent with the subjective reports of increased drowsiness following phenytoin.

healthy normal subjects [13] = experiment: Experiment 6: NCFC index
Description: Neurocognitive Function Change Index: The hybrid multivariate function for assessing changes in neurocognitive function described in Experiment 2 was also applied to this dataset, computing degree of neurocognitive change from an average of the placebo test sessions. The resulting index scores were then computed as deviations from the pre-drug test administration index score to illustrate how neurocognitive function varied over the phenytoin test session.

For `Nc1nnc(-c2cccc(Cl)c2Cl)c(N)n1` [lamotrigine], which “NCFC scores relative to pre-treatment baseline” value (healthy adults [1]) is on record?
The value was “impaired neurocognitive function was observed in response to both drugs”.

Which “NCFC scores relative to pre-treatment baseline” value (healthy adults [1]) does the source give for `CC1(C)O[C@@H]2[C@@H](CO[C@@]3(COS(N)(=O)=O)OC(C)(C)O[C@@H]23)O1` [topiramate] here?
The value was “impaired neurocognitive function was observed in response to both drugs”.

And the “Cognitive side effect profile” value (healthy adults [2])?
Its value is “relatively worse cognitive side effect profile than lamotrigine”.

For `Cc1nnc2n1-c1ccc(Cl)cc1C(c1ccccc1)=NC2` [alprazolam], which “Time of largest effect on behavioral performance” value (healthy subjects [3]; after drug ingestion) is on record?
The value was 0.5 to 1 h.

And the “Accuracy in working memory task vs placebo” value (healthy subjects [3]; easy and difficult level)?
Its value is “less accurate”.

What about the “Response speed in working memory task vs placebo” value (healthy subjects [3]; easy and difficult level) of the same compound?
Its value is “significantly slower”.

And the “Time of behavior returning towards baseline levels” value (healthy subjects [3]; post drug ingestion)?
The value was 3.5 to 4 h.

And the Tpeak [4]?
The Tpeak was 1 to 2 h.

And the plasma half-life [4]?
The plasma half-life was 6 to 16 h.

What about the “Other subjective effects vs placebo” value (healthy subjects [5]; 1 mg alprazolam) of the same compound?
The value was “significantly more sleepy, more “spacey/out of it”, and more clumsy”.

What about the “Visual analogue scale: feel the effects of the drug, vs placebo” value (healthy subjects [5]; 1 mg alprazolam) of the same compound?
The value was “heightened sense that they could “feel the effects of the drug””.

What about the “Onset of felt drug effects” value (healthy subjects [5]; after drug ingestion) of the same compound?
Its value is 0.5 h.

And the “Peak of felt drug effects” value (healthy subjects [5]; after drug ingestion)?
The value was 1.5 to 2 h.

What about the “Pharmacodynamic profile: onset of cognitive impairment” value (healthy subjects [6]) of the same compound?
Its value is “rapid and relatively severe”.

What about the “P300 amplitude vs placebo” value (healthy subjects [7]; difficult task level) of the same compound?
The value was “significantly reduced P300 amplitude”.

And the “Resting beta power vs placebo” value (healthy subjects [7]; eyes closed state)?
Its value is “highly significant increase in beta power”.

What about the “Resting theta power vs placebo” value (healthy subjects [7]; eyes closed state) of the same compound?
The value was “did not affect theta power in the eyes closed state”.

What about the “Resting alpha power vs placebo” value (healthy subjects [7]; eyes open and eyes closed states) of the same compound?
Its value is “significantly reduced alpha power in both eyes open and eyes closed states”.

And the “Resting beta power vs placebo” value (healthy subjects [7]; eyes open state)?
The value was “same pattern of enhancement after drug ingestion, but to a lesser extent than in the eyes closed state”.

And the “Resting theta power vs placebo” value (healthy subjects [7]; eyes open state)?
The value was “significant decrease in theta power in the eyes open state”.

What about the “Task-related beta power vs placebo” value (healthy subjects [7]; in vivo) of the same compound?
The value was “significantly larger on the alprazolam day than on the placebo day”.

And the “Task-related frontal midline theta vs placebo” value (healthy subjects [7]; in vivo)?
The value was “significantly attenuated”.

And the “Task-related slow and fast alpha signals vs placebo” value (healthy subjects [7]; in vivo)?
Its value is “significantly attenuated”.

What about the “P300 amplitude vs placebo” value (healthy subjects [7]; low load task level and simple reaction time task) of the same compound?
Its value is “did not significantly differ between placebo and alprazolam conditions”.

Which “Accuracy and reaction time during task performance vs placebo” value (healthy normal subjects [8]) does the source give for `O=C1NC(=O)C(c2ccccc2)(c2ccccc2)N1` [phenytoin] here?
The value was “neither accuracy nor reaction time during task performance differed on average”.

What about the therapeutic range [9] of the same compound?
The therapeutic range was 10 to 20 µg/mL.

And the concentration at 5 h ([10]; read-out: blood serum level range)?
Its concentration at 5 h is 3500 to 13600 ng/mL.

And the concentration at 5 h ([10]; read-out: mean blood serum level)?
Its concentration at 5 h is 9000 ng/mL.

What about the “Visual analogue scale: feel the effects of the drug, vs placebo” value (healthy normal subjects [11]; 10 mg/kg phenytoin) of the same compound?
The value was “heightened sense that they could “feel the effects of the drug””.

And the “Time of strongest sensations” value (healthy normal subjects [11]; after drug administration)?
Its value is “about 4 hours”.

And the “Subjective sleepiness vs placebo” value (healthy normal subjects [11]; in vivo)?
Its value is “marginally more sleepy”.

And the “Attention-related enhancement of N160 response to target stimuli” value (healthy normal subjects [12]; easy level of the task)?
The value was “significantly reduced in the phenytoin condition”.

What about the “Resting alpha band power vs placebo” value (healthy normal subjects [12]; eyes-closed) of the same compound?
Its value is “decrease in power in the 9-11 Hz (alpha band) frequency range”.

And the “Resting theta band power vs placebo” value (healthy normal subjects [12]; eyes-closed, parieto-occipital electrodes)?
The value was “small increase in power in the 3-6 Hz (theta band) frequency range”.

What about the “Effects on centroparietal P300 component” value (healthy normal subjects [12]; in vivo) of the same compound?
The value was “heterogeneous”.

And the “Difficulty-related enhancement of frontal midline theta signal” value (healthy normal subjects [12]; low load vs high load WM task)?
Its value is “reduced the difficulty-related enhancement of the frontal midline theta signal”.

And the “Pharmacodynamic profile: onset of cognitive impairment” value (healthy normal subjects [13]; FIG. 12)?
Its value is “slower to develop and relatively mild”.

What about the “Period of acute impairment in individual subjects” value (healthy normal subjects [13]; following drug ingestion) of the same compound?
Its value is 2 to 4 h.

What about the “Average NCFC index scores” value (healthy normal subjects [13]; relative to pre-treatment baseline) of the same compound?
Its value is “tended to decline relative to the pre-treatment baseline interval”.
